Source: PubChem BioAssay (NCI)
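Assay format: 96-well plates, 48-hour exposure. GI50 is the concentration that inhibits growth by half. TGI: total growth inhibition.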

Tests used:
Assay in all cases: inhibition of tumour cell growth, NCI panel, 48 h
NCI-H522 lung = tested on: NCI-H522 lung
IGROV1 ovarian = tested on: IGROV1 ovarian
SW-620 colon = tested on: SW-620 colon
786-0 renal = tested on: 786-0 renal
UACC-257 melanoma = tested on: UACC-257 melanoma
M14 melanoma = tested on: M14 melanoma
NCI-H23 lung = tested on: NCI-H23 lung
HOP-62 NSCLC = tested on: HOP-62 NSCLC
SK-MEL-2 melanoma = tested on: SK-MEL-2 melanoma
DU-145 prostate = tested on: DU-145 prostate

Compound | TGI (NCI-H522 lung) [µM] | TGI (IGROV1 ovarian) [µM] | TGI (SW-620 colon) [µM] | TGI (786-0 renal) [µM] | TGI (UACC-257 melanoma) [µM] | TGI (M14 melanoma) [µM] | TGI (NCI-H23 lung) [µM] | TGI (HOP-62 NSCLC) [µM] | GI50 (SK-MEL-2 melanoma) [µM] | TGI (SK-MEL-2 melanoma) [µM] | GI50 (NCI-H522 lung) [µM] | GI50 (IGROV1 ovarian) [µM] | GI50 (DU-145 prostate) [µM] | TGI (DU-145 prostate) [µM] | GI50 (SW-620 colon) [µM] | GI50 (786-0 renal) [µM] | GI50 (UACC-257 melanoma) [µM] | GI50 (NCI-H23 lung) [µM] | GI50 (HOP-62 NSCLC) [µM] | GI50 (M14 melanoma) [µM]
O=C(Nc1cc(Cl)ccc1Cl)c1cc2cccc(Cl)c2oc1=O | > 100 | > 100 | > 100 | > 100 | > 100 | > 100 | > 100 | > 100 | – | – | – | – | – | – | – | – | – | – | – | –
NS(=O)(=O)c1ccc(N(/C=C/C(=O)C(F)(F)F)CC(=O)c2ccc(Cl)cc2)cc1 | 72.2 | 81.7 | > 100 | > 100 | > 100 | – | > 100 | > 100 | 38.1 | > 100 | 24.3 | 22.5 | 93.3 | > 100 | 57 | 45.2 | 50.9 | 37.5 | 33 | –
CCc1c(OC(C)=O)c2c(NC3OC(COC(C)=O)C(OC(C)=O)C(OC(C)=O)C3OC(C)=O)nc(OC)nc2oc1=O (stereo not drawn) | – | > 100 | > 100 | > 100 | > 100 | > 100 | > 100 | > 100 | – | > 100 | – | – | – | – | – | – | – | – | – | –
O=c1cc2oc3cc(O)c(O)cc3c(-c3ccccc3O)c-2cc1O | – | > 100 | > 100 | 37.2 | > 100 | 32.1 | 39.1 | > 100 | 36.8 | > 100 | – | 6.73 | 22.8 | > 100 | 32.7 | 6.32 | 20.4 | 3.88 | 5.62 | 6.66
Nc1c(C(=O)Nc2cccc(Br)c2)sc2nc3c(cc12)C(=O)CCC3 | – | > 100 | > 100 | > 100 | > 100 | > 100 | > 100 | > 100 | – | – | 0.248 | 1.73 | 0.426 | > 61.6 | 0.426 | 0.86 | > 100 | 0.583 | 1.41 | 0.568
C=CCc1cccc(/C=N/NC(=O)CN2CCN(Cc3ccccc3)CC2)c1O | – | 3.13 | 17.1 | 12.1 | 13.8 | 13.3 | 16.5 | 13.8 | 2.31 | 11.5 | – | 0.483 | 1.79 | 13.4 | 3.8 | 2.04 | 2.46 | 3.05 | 2.25 | 1.84
CCc1cccc(C)c1NC(=O)C(=O)Cc1nc2ccccc2o1 | > 100 | > 100 | > 100 | > 100 | > 100 | > 100 | > 100 | > 100 | – | > 100 | – | – | – | – | – | – | – | – | – | –
COC(=O)[C@]1(C)CCCC2(C)C1CC[C@H]1C=C(C)[C@H]3CCC12C3 (stereo partly drawn) | > 100 | > 100 | > 100 | > 100 | > 100 | > 100 | > 100 | > 100 | – | – | – | – | – | – | – | – | – | – | – | –
COc1ccc2oc(-c3cccnc3)cc(=O)c2c1 | – | > 100 | – | > 100 | > 100 | > 100 | > 100 | > 100 | – | > 100 | – | – | – | – | – | – | – | – | – | –
CCOc1ccc2c(c1)[n+]([O-])c(-c1ccccc1Cl)c(N)[n+]2[O-] | 33.8 | > 100 | > 100 | > 100 | > 100 | > 100 | > 100 | > 100 | – | > 100 | – | – | – | – | – | – | – | – | – | –
COC1[C@@H](OC(C)=O)[C@@H](NC(=O)C(Cl)(Cl)Cl)C(I)[C@@H](N2C(=O)c3ccccc3C2=O)[C@H]1OC (stereo partly drawn) | > 100 | > 100 | > 100 | > 100 | > 100 | > 100 | > 100 | > 100 | – | – | – | – | – | – | – | – | – | – | – | –
CCOc1ccc(N2C(=O)/C(=C/c3ccc(N(CCC#N)CCC#N)cc3)N=C2c2cc([N+](=O)[O-])ccc2Cl)cc1 | – | – | 55.9 | 26.4 | – | 61.3 | > 100 | > 100 | – | > 100 | – | – | – | – | – | – | – | – | – | –
CCOc1ccc2nc(S/C(=C/C=C(C#N)C#N)c3ccc(C)cc3)sc2c1 | 49.3 | > 100 | 35.8 | 46.8 | > 100 | > 100 | 97.3 | > 100 | – | – | 20.8 | 54.5 | 40.5 | > 100 | 5.35 | 21.9 | > 100 | 35.6 | 44.9 | 35.8
O=C1NC(=S)NNC12c1ccccc1-c1ccccc12 | – | > 10 | > 10 | > 10 | > 10 | > 10 | > 10 | > 10 | – | – | – | – | – | > 10 | – | – | – | – | – | –
O=[N+]([O-])c1ccc(-n2nnc(C3=NCCN3)c2-c2ccc(Cl)cc2)cc1 | > 100 | > 100 | > 100 | > 100 | > 100 | > 100 | > 100 | > 100 | – | > 100 | – | – | – | – | – | – | – | – | – | –
COc1cccc(/C=N/[N-]C(=O)c2ccncc2)c1[O-].[Cu+2].[OH3+] | – | > 100 | > 100 | > 100 | > 100 | > 100 | > 100 | 86.4 | > 100 | > 100 | – | 38.7 | – | – | 48.2 | 63.4 | > 100 | 34.1 | 15.7 | 61.3
O=C1c2ccccc2C2(O)c3cc4ccccc4cc3OC12O (stereo not drawn) | > 100 | > 100 | > 100 | > 100 | 89.3 | > 100 | > 100 | > 100 | – | > 100 | – | – | – | – | – | – | – | – | – | –
Cc1ccc(S(=O)(=O)N/N=C/c2oc(-c3ccncc3)c(-c3ccncc3)c2[N+](=O)[O-])cc1 | > 100 | > 100 | > 100 | > 100 | > 100 | > 100 | > 100 | > 100 | – | > 100 | – | – | – | – | – | – | – | – | – | –
